The values below come from PMC12621184, “Synthesis and Pharmacological Characterization of Nociceptin/Orphanin FQ Dimeric Ligands” (Journal of Medicinal Chemistry, 2025).

Entries after “also recorded” stand apart in the source; their conditions may differ. Bridge positions count the residues as written; N and C are the ends. Ends that are not written are not given here. Peptide text beside a SMILES is read from it. I, II: the chains in the order shown.

Test [1] has as its target T1, human NOP (Homo sapiens, UniProt P41146). Kind of test: Calcium mobilization assay, CHO cells with NOP receptor and chimeric G protein. Set-up: expressed in transfected cells. It counts as cell-based. On the procedure:
Chinese hamster ovary (CHO) cells stably coexpressing the human NOP, μ, or κ opioid receptors and the Gαqi5 protein or the human δ and the GαqG66Di5 protein were used in this assay. , Cells were cultured in DMEM/F-12 (1:1) medium supplemented with 10% FBS, 2 mM L-glutamine, […], 100 IU/mL penicillin, and 100 IU/mL streptomycin. Cells were maintained at 37 °C in a humidified atmosphere with 5% CO2 and were seeded at 50 000 cells/well into 96-well black, clear-bottom plates 24 h before test. Loading for 45 min with a solution consisting of HBSS supplemented with 2.5 mM probenecid, 3 μM Fluo-4 AM, and 0.01% pluronic acid ensures the calcium-sensitive dye (Fluo-4) reaches the needed concentration inside the cell, while the exchange of the solution with 100 μL/well of buffer consisting of HBSS with 20 mM HEPES, 2.5 mM probenecid, and 500 μM Brilliant Black allows for fluorescence background to decrease. Serial dilutions of ligands were prepared in HBSS buffer with 20 mM HEPES and 0.02% bovine serum albumin (BSA) to minimize the ligands’ stickiness to plasticware. The automated microplate reader FlexStation II (Molecular Devices, CA, US) was employed at 37 °C to detect changes in fluorescence intensity. The effects of all compounds were expressed as the maximum change in percentage over the baseline fluorescence measured in samples treated with vehicles.
(§1) Concentration-response curves to agonists were analyzed by a four-parameter logistic nonlinear regression model: Effect = baseline + (E max – baseline)/(1 + 10^((logEC50–log[ligand])slope)). […] Experimental data were expressed as mean ± sem of at least 5 experiments. Potency values were expressed as the mean and CL95%. In vitro E max values were analyzed by one-way ANOVA, while in vivo latency data were evaluated by one-way ANOVA followed by Dunnett’s post hoc test. The proportion of mice losing the righting reflex was compared by Fisher’s exact test performed on raw data. GraphPad Prism 10.0 software was used for all of the analyses. The terminology employed is consistent with the International Union of Basic and Clinical Pharmacology (IUPHAR) recommendations. ,

In test [2] the target is T1, human NOP. Kind of test: NOP receptor–G protein interaction BRET assay. Set-up: expressed in transfected cells; host or cells: membranes of HEK293 cells stably coexpressing NOP-RLuc and Gβ1-RGFP. It counts as biochemical. As to conditions: N = 5 experiments in duplicate. How it is done: A BRET interaction assay was used, as previously detailed in ref , to study the propensity of ligands to evoke interaction between the NOP receptor and to G protein. Membranes taken from HEK293 cells stably coexpressing the fusoproteins NOP-RLuc and Gβ1-RGFP were used. Such cells were grown in DMEM medium supplemented with 10% FBS, 2 mM L-glutamine, […] G418, […] hygromycin B, 100 IU/mL penicillin, and 100 IU/mL streptomycin in a humidified atmosphere with 5% CO2 at 37 °C. Cell membranes were thawed and resuspended in PBS supplemented with 0.01% BSA before the assay, and an amount of 3 μg of total protein was dispensed in each of the 96 wells together with 2 μM Prolume Purple Coelenterazine. All experiments were carried out at room temperature. Ligands were added, and averaged BRET ratios from 10 min measurements were computed. BRET ratios were computed as counts per second (CPS) obtained on a Victor Nivo (PerkinElmer) with 405 (10) nm and 510 (30) nm bandpass filters. Vehicles’ BRET ratios were derived from light passed through 510 divided by that passed through 405 filters. Vehicles BRET values were subtracted from all computations, and data sets were normalized as a fraction of N/OFQ maximal effects.
as §1

The test system of the next test is sleep in rats. As to conditions: reported in the literature, ref not given; cited from earlier work.
In test [3] the test system is mouse vas deferens from NOP(+/+) mice. Kind of test: Electrically stimulated mouse vas deferens bioassay, NOP(+/+) tissues. As to conditions: for potency (pEC50) for inhibition of electrically induced contractions / maximal inhibition of electrically induced contractions: mVD from CD-1 NOP(+/+) mice, 5 experiments; for potency (pEC50) for inhibition of electrically induced contractions: 33 °C, mean (CL95%); for maximal inhibition of electrically induced contractions: mean ± sem. How it is done: (§2) This study was approved by the Animal Welfare Body of the University of Ferrara and by the Italian Ministry of Health (authorization number CBCC2.N.BXI). Experiments were performed on an isolated mouse vas deferens. All experiments were conducted with mice bred and housed in the University of Ferrara’s animal facility under specific pathogen-free conditions (SPF). All mice were housed in cages with individual ventilation, with a constant temperature of 21 °C, 60% humidity, and a 12 h light/dark cycle. Food and water were provided ad libitum. CD-1 NOP(+/+) and CD-1 NOP(−/−) male mice, aged 9 to 12 months, were used. Animals were sacrificed on the day of the experiment with CO2 overdose. Bioassay experiments were performed as previously described. The tissues were suspended in 5 mL organ bath containing Krebs solution (NaCl 118.5 […]). The Krebs solution was oxygenated with 95% O2 and 5% CO2 and the temperature set at 33 °C with a resting tension of 0.3 g applied to the tissues. Tissues were stimulated through two platinum electrodes with a supramaximal rectangular pulse of 1 ms duration, 0.05 Hz frequency, and 80 V of amplitude. The electrically evoked contractions were measured isotonically by means of Basile strain gauge transducers (Basile, IT) and a recorder with a Power Lab 8 instrument (ADInstruments, CO, U.S.). Following an equilibration period of approximately 60 min, the contractions induced by electrical field stimulation were stable. At this time, cumulative concentration response curves were carried out.
as §1

The test system of test [4] is mouse vas deferens from NOP(−/−) mice. Kind of test: Electrically stimulated mouse vas deferens bioassay, NOP(−/−) tissues. The note with it: mVD from CD-1 NOP(−/−) mice; 5 experiments. How it is done: as §2
Concentration-response curves to agonists were analyzed by a four-parameter logistic nonlinear regression model: Effect = baseline + (E max – baseline)/(1 + 10^((logEC50–log[ligand])slope)). […] Experimental data were expressed as mean ± sem of at least 5 experiments. Potency values were expressed as the mean and CL95%. In vitro E max values were analyzed by one-way ANOVA, while in vivo latency data were evaluated by one-way ANOVA followed by Dunnett’s post hoc test. […]

The target of test [5] is murine NOP receptor (mouse (endogenous in mouse vas deferens)) (UniProt P35377).
Test [6] deals with loss of the righting reflex (RR) in mice. Kind of test: Loss of the righting reflex assay in mice. It counts as in vivo, mouse. As to conditions: 10 nmol, icv. How it is done:
All of the experimental procedures adopted in the in vivo studies comply with the European Directive 2010/63/EU on protecting animals used for scientific purposes and Italian Legislative Decree no. 26 of March 4, 2014. These experiments were approved by the Animal Welfare Body of the University of Ferrara and by the Ministry of Health (authorization number 677/2024-PR). In vivo studies have been reported following ARRIVE guidelines. All experiments were conducted with mice bred and housed in the University of Ferrara’s animal facility under specific pathogen-free conditions. All mice were housed in cages with individual ventilation, with a constant temperature of 21 °C, 60% humidity, and a 12 h light/dark cycle. Food and water were provided ad libitum. CD-1 male and female mice, aged 2 to 4 months, were used. Details about the generation of NOP(−/−) and NOP(+/+) mice have been published previously; , these mice have been backcrossed on CD-1 strain in our laboratories. NOP(+/+) and NOP(−/−) littermates were obtained by mating with NOP(±) mice. All mice were genotyped using the polymerase chain reaction previously described. All mice were used only once. The RR assay was performed as previously described. […] Diazepam 15 mg/kg was injected ip. When the animals lost RR, they were placed in a plastic cage, and the time was recorded by an expert observer, blind to drug treatments and/or genotype. Animals were judged to have regained the RR response when they could correct themselves three times within 30 s. Sleeping time is defined as the amount of time between the loss and regaining of the RR; it was rounded to the nearest minute.
as §1

The target of a further test is NOP-RLuc (UniProt P41146).
Test [7] has as its target human nociceptin/orphanin FQ (N/OFQ) peptide receptor (human) (UniProt P41146).

Chain of murine NOP receptor (mouse (endogenous in mouse vas deferens)) (P35377 whole entry): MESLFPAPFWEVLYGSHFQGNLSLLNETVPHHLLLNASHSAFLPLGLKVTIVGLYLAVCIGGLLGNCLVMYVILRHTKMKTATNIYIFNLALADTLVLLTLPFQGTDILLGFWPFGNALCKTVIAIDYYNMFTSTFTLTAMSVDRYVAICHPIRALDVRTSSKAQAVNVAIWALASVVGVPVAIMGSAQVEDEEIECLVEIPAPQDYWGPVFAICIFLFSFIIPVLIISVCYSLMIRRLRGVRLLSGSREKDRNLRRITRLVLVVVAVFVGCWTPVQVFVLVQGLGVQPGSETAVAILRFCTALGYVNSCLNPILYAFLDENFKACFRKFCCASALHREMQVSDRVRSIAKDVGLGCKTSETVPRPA
Chain of human nociceptin/orphanin FQ (N/OFQ) peptide receptor (human) (P41146 whole entry): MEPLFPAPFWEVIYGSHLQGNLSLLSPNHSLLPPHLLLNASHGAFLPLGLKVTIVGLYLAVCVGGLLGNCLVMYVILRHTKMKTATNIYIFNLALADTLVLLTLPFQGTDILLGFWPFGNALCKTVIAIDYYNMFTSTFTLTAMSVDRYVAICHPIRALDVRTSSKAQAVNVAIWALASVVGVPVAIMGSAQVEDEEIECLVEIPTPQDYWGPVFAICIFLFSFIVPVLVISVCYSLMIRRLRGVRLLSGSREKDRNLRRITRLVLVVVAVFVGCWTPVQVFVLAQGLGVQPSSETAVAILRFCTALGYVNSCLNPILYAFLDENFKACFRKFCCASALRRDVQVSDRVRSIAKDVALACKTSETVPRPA
T1 sequence (P41146 whole entry): as above
Chain of NOP-RLuc (P41146 whole entry): as above

For `CC(C)C[C@H](NC(=O)[C@H](CCCCN)NC(=O)[C@H](CCCNC(=N)N)NC(=O)[C@H](C)NC(=O)[C@H](CO)NC(=O)[C@H](CCCCN)NC(=O)[C@H](CCCNC(=N)N)NC(=O)[C@H](C)NC(=O)CNC(=O)[C@@H](NC(=O)[C@H](Cc1ccccc1)NC(=O)CNC(=O)CNC(=O)[C@@H](N)Cc1ccccc1)[C@@H](C)O)C(=O)N[C@@H](C)C(=O)N[C@@H](CSSC[C@H](NC(=O)[C@H](C)NC(=O)[C@H](CC(C)C)NC(=O)[C@H](CCCCN)NC(=O)[C@H](CCCNC(=N)N)NC(=O)[C@H](C)NC(=O)[C@H](CO)NC(=O)[C@H](CCCCN)NC(=O)[C@H](CCCNC(=N)N)NC(=O)[C@H](C)NC(=O)CNC(=O)[C@@H](NC(=O)[C@H](Cc1ccccc1)NC(=O)CNC(=O)CNC(=O)[C@@H](N)Cc1ccccc1)[C@@H](C)O)C(=O)N[C@@H](CCC(N)=O)C(N)=O)C(=O)N[C@@H](CCC(N)=O)C(N)=O` [1j, [[Cys^16]N/OFQ-NH2]2] (I: H-FGGFTGARKSARKLACQ-NH2 / II: H-FGGFTGARKSARKLACQ-NH2; disulfide I:16-II:16), the EC50 was 1.38 nM at human NOP [1] (CHO cells coexpressing human NOP and Gαqi5, Fluo-4, 37 °C, mean (CL95%), N = 5 experiments in duplicate, read-out: Ca^2+ mobilization pEC50 (CL95%) (converted)); 0.174 nM at human NOP [2] (membranes from HEK293 cells coexpressing NOP-RLuc and Gβ1-RGFP, room temperature, mean (CL95%), read-out: NOP–G protein interaction pEC50 (CL95%) (converted)). Besides, the “Ca^2+ mobilization E max ± sem” value on human NOP [1] (CHO cells coexpressing human NOP and Gαqi5, maximum change in percentage over baseline fluorescence, mean ± sem, N = 5 in duplicate) is 312 ± 38 % over the baseline. For the same molecule, the “NOP–G protein interaction E max ± sem” value at human NOP [2] (effects normalized to N/OFQ-NH2 (E max = 1), mean ± sem) is given as 0.98 ± 0.02.

With `O=C1NCN(c2ccccc2)C12CCN([C@@H]1CC[C@H]3CCCc4cccc1c43)CC2` [Ro 64-6198], the “induced sleep at EEG recordings” value in the test with sleep in rats is 3 to 5 h.

In the case of `O=C(O)c1nc2ccccc2n([C@@H]2C[C@H]3CCC[C@@H](C2)N3C2C[C@H]3CCC[C@@H](C2)C3)c1=O` (stereo partly shown) [Sunobinop], the “induced sleep at EEG recordings” value in the test on sleep in rats is on record as 3 to 5 h.

For [D-Pen^2,D-Pen^5]enkephalin [DPDPE], in [3], the “potency (pEC50) for inhibition of electrically induced contractions” value is 7.72 (7.45–7.99) and the “maximal inhibition of electrically induced contractions” value worked out at 86 ± 6%. Further, the “effect in mVD tissues from NOP(−/−) mice (in words)” value in test [4] is listed as “superimposable”.

With nociceptin/orphanin FQ (peptide), in test [5], the maximal inhibition of electrically induced contractions of the mouse vas deferens, NOP(+/+) tissues worked out at 71% and the potency (pEC50), inhibition of electrically induced contractions of the mouse vas deferens, NOP(+/+) tissues stood at 7.59 pEC50.

On to nociceptin/orphanin FQ [N/OFQ], for which, in [3], the “potency (pEC50) for inhibition of electrically induced contractions” value is reported as 7.59 (7.41–7.77) and the “maximal inhibition of electrically induced contractions” value was determined as 71 ± 4%. Also, the “kinetics of action in mVD (in words)” value in [3] (onset and reversibility upon washout) was “fully and rapidly reversible upon washout”. Moreover, the “effect in mVD tissues from NOP(−/−) mice (in words)” value in test [4] is “completely inactive”. The “mice that lost the RR, 10 nmol” value in [6] (CD-1 mice, N = 8–10 per group) is “fewer than half”. Further, the “duration of action on RR (in words)” value in test [6] (mice that lost the RR) is “short-lasting action; also recorded: few minutes”.

In the case of FGGFTGARKSARKCANQ-NH2 (also: homodimer: Cys14-Cys14 disulfide to second copy) [[[Cys^14]N/OFQ-NH2]2], the pEC50, NOP–G protein interaction (BRET, membranes of HEK293 cells with NOP-RLuc and Gβ1-RGFP) in the test with NOP-RLuc was determined as 9.91 pEC50. The molecule also displayed an E max, NOP–G protein interaction (BRET), normalised to N/OFQ-NH2 (E max = 1) in the test with NOP-RLuc (scale: fraction of the maximal effect of N/OFQ-NH2) of 0.8. In test [7], the E max, Ca^2+ mobilization in CHO cells with human NOP and Gαqi5 (% over baseline) was determined as 241; the pEC50, Ca^2+ mobilization in CHO cells with human NOP and Gαqi5 stood at 9.14 pEC50. In addition, in test [5], the pEC50, inhibition of electrically induced contractions of the mouse vas deferens, NOP(+/+) tissues was found to be 6.79 pEC50.
